Laboratory results from ChEMBL document CHEMBL1201862, “PubChem BioAssay data set” (2004).
Active and inactive are the calls of the source.

Legend:
Streptokinase A = target: T1, Streptokinase A (Streptococcus pyogenes serotype M1, UniProt P10520); assay: S. pyogenes streptokinase expression inhibitors, potency, dose response, plasminogen activation absorbance, OD405 (AID 1914); format: functional, Streptococcus pyogenes M1 GAS;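 further: secreted streptokinase activity via plasminogen activation per viability signal from cell pellet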
T1 sequence (P10520 whole entry): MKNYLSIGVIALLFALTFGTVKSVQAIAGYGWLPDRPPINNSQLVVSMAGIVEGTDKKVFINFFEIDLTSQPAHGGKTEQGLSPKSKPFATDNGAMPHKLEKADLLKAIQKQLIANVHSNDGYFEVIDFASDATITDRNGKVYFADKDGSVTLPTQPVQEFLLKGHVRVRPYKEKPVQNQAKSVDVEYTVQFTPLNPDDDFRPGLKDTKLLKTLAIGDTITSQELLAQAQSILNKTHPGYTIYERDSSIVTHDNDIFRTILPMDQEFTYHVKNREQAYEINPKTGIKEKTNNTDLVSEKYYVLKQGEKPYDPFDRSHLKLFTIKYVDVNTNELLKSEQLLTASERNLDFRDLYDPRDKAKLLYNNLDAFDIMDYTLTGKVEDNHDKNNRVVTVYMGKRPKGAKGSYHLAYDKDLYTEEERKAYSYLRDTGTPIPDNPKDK

[1] = tested on: Streptococcus sp. 'group A'; assay: growth inhibition of control SK(-) GAS strain, dose response, counter-screen for streptokinase expression inhibitor project, luminescence, kanamycin, BacTiterGlo, confirmation (AID 1900); format: functional, organism-based
Streptococcus = assay: Group A Streptococcus viability loss, dose response, counter-screen for streptokinase expression inhibitor project, luminescence, BacTiterGlo (AID 1915); format: functional, organism-based;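 further: potency for reduction of bacterial viability or growth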
[2] = target: T2, Rac GTPase-activating protein 1 (Homo sapiens, UniProt Q9H0H5); assay: MgcRacGAP GTPase-activating activity inhibitors, confirmation, biochemical, ADP Hunter fluorescence, primary and confirmatory (AID 624330); format: functional
T2 sequence (Q9H0H5 whole entry): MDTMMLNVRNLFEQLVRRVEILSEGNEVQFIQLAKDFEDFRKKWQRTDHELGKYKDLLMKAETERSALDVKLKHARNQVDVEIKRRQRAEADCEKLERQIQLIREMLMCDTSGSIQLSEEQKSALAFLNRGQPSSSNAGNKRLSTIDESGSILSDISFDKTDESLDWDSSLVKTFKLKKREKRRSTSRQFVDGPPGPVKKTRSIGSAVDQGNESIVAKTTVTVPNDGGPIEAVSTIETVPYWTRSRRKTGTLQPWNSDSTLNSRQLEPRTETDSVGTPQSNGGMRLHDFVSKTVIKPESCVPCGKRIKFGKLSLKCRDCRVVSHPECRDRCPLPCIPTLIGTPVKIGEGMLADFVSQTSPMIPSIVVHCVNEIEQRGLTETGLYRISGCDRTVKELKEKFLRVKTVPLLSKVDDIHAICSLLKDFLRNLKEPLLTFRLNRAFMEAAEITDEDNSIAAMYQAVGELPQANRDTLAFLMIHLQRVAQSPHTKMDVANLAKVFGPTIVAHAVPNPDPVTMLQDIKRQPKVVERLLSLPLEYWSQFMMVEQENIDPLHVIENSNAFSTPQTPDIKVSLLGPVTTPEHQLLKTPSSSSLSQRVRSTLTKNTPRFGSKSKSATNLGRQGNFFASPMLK

Paired box protein Pax-8 = Paired box protein Pax-8 (Homo sapiens, UniProt Q06710); assay: inhibitors of PAX8-driven TPO luciferase reporter, dose response, RMG-I cells, cherry-pick (AID 687027); format: functional, cell-based;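 further: luciferase reporter driven by Pax8 target thyroperoxidase promoter measured by SteadyGlo luminescence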
[3] = NIH-3T3 fibroblast cytotoxicity, dose response, cytotoxicity control, cell-based, fluorescence, Alamar Blue, secondary assay (AID 2327); format: functional;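 further: NIH-3T3 mouse fibroblasts cultured with fluconazole at 8 µg/mL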
[4] = C. albicans growth with fluconazole, confirmation, fluorescence, retest (AID 2467); format: functional, cell-based
[5] = Luminescence Cell-Based Dose Retest to Confirm Inhibitors of Cancer Stem Cells. [Related pubchem assays (depositor defined):AID2717, AID2721]; format: functional; conditions: Homo sapiens
[6] = target: FAD-linked sulfhydryl oxidase ALR (Homo sapiens, UniProt P55789); assay: inhibitors of human ALR sulfhydryl oxidase, dose response, biochemical, H2O2 detection, luminescence, cherry-pick (AID 493248)
Cytochrome P450 2C9 = Cytochrome P450 2C9 (Homo sapiens, UniProt P11712)
INS1 = assay: beta cell apoptosis inhibitors, cytokine rescue, dose response, luminescence, retest (AID 449756); format: functional, cell-based; conditions: Rattus norvegicus;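 further: cell death triggered by IL-1 beta plus TNF-alpha plus IFN-gamma mixture; protective hits raise ATP signal compared with cytokine alone wells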
[7] = microbe, parasite or virus in culture; format: functional; conditions: Mycobacterium tuberculosis

Chain of FAD-linked sulfhydryl oxidase ALR (P55789 whole entry): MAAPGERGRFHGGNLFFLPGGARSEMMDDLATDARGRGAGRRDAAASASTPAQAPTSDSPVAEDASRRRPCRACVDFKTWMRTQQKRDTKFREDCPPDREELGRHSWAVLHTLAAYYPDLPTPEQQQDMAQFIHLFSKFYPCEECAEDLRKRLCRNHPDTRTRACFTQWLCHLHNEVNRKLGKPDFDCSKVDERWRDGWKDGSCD
Chain of Paired box protein Pax-8 (Q06710 whole entry): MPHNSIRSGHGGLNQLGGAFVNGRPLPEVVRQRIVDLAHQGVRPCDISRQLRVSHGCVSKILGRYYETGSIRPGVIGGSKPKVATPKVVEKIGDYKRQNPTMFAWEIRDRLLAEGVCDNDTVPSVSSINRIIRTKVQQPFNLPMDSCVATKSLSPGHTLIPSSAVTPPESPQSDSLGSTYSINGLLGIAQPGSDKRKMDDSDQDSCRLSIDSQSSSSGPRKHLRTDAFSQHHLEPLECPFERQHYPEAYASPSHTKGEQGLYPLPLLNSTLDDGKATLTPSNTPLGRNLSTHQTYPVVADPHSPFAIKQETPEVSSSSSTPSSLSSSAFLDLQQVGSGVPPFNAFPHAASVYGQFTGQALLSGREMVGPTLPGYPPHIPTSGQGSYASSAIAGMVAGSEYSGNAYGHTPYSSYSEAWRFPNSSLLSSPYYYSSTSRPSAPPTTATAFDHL
Chain of Cytochrome P450 2C9 (P11712 whole entry): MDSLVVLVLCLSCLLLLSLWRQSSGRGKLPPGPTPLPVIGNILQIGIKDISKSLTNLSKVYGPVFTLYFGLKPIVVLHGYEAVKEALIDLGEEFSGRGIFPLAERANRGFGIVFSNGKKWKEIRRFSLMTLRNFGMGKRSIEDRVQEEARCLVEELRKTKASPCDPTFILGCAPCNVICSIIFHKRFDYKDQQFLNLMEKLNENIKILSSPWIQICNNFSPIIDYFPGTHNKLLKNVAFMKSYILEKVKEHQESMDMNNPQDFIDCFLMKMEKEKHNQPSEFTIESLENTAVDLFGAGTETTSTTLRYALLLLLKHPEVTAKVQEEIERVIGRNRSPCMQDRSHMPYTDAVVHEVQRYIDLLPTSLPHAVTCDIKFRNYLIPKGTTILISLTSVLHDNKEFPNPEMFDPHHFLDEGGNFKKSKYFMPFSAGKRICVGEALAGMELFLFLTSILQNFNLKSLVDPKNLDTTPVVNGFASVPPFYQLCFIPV

Structure (SMILES): COc1ccc(C2c3ccc(O)cc3Oc3ncn4nc(-c5ccncc5)nc4c32)cc1OC (stereo not drawn)
- EC50 (Streptokinase A): > 150 µM (not active)
- EC50 [1]: 4.67 µM (active)
- EC50 (Streptococcus): 27.9 µM (active)

Structure (SMILES): CCN=C(S)Nc1cc2oc3ccccc3c2cc1OC
- IC50 [2]: 99.9 µM (active)

Structure (SMILES): CCCCn1c(=O)c(C(=O)NCc2ccccc2Cl)c(O)c2ccccc21
- EC50 (Streptokinase A): 5.97 µM (inconclusive)
- EC50 [1]: 54.8 µM (active)
- EC50 (Streptococcus): > 150 µM (not active)

Structure (SMILES): Cc1ccc(C2=NN=C(NC(=O)CSc3nncn3C)SC2)cc1
- IC50 [2]: 256 µM (active)

Structure (SMILES): C[C@@H]1CN([C@@H](C)CO)C(=O)c2cc(NC(=O)Nc3ccc4c(c3)OCO4)ccc2O[C@@H]1CN(C)C(=O)Nc1ccc(C(F)(F)F)cc1
- AC50 (Paired box protein Pax-8): 11.1 µM (active)

Structure (SMILES): O=C(CN1CCN(Cc2ccccc2)CC1)NC(c1ccccc1)c1ccccc1
- IC50 [2]: 77.1 µM (active)

Structure (SMILES): CCn1c(CN2CCCCCC2=O)nnc1SCc1cnc(-c2ccccc2)s1
- EC50 [3]: 68 µM (inconclusive)
- EC50 [4]: 1.47 µM (active)

Structure (SMILES): Cc1ccc(Oc2ccc3c(c2)C(=O)N(c2ccc(S(=O)(=O)Nc4nccs4)cc2)C3=O)cc1
- EC50 (Streptokinase A): > 150 µM (not active)
- EC50 [1]: 9.43 µM (active)
- EC50 (Streptococcus): 20 µM (active)

Structure (SMILES): O=C(NC(=S)N1CCN(c2ccc(F)cc2)CC1)C12CC3CC(CC(C3)C1)C2
- EC50 (Streptokinase A): > 150 µM (not active)
- EC50 [1]: 29.7 µM (active)
- EC50 (Streptococcus): > 150 µM (not active)

Structure (SMILES): CS(=O)(=O)Nc1ccc(C(=O)Nc2ccccc2C(=O)NCc2ccco2)cc1
- EC50 (Streptokinase A): > 150 µM (not active)
- EC50 [1]: > 150 µM (not active)
- EC50 (Streptococcus): > 150 µM (not active)

Structure (SMILES): O=C(CNS(=O)(=O)c1ccc(Br)s1)NCC1COc2ccccc2O1 (stereo not drawn)
- EC50 [3]: > 150 µM (inactive)
- EC50 [4]: > 38 µM (not active)

Structure (SMILES): CC(NS(=O)(=O)/C=C/c1ccccc1)C(=O)O (stereo not drawn)
- EC50 (Streptokinase A): > 150 µM (not active)
- EC50 [1]: > 150 µM (not active)
- EC50 (Streptococcus): > 150 µM (not active)

Structure (SMILES): c1ccc(NNC2=NCCCCC2)cc1
- AC50 [5]: 0.898 µM (active)
- AC50 [6]: 0.596 µM (active)

Structure (SMILES): Nc1c(-c2ccccc2)cnn1-c1cccc([N+](=O)[O-])c1
- AC50 (Cytochrome P450 2C9): 28.2 µM (inconclusive)
- AC50 [6]: 0.125 µM (active)

Structure (SMILES): Brc1ccc(OCCCN2CCOCC2)cc1
- IC50 [2]: 123 µM (active)

Structure (SMILES): COc1ccc(/C=C/C(=O)N(c2ccccn2)C2CCCCC2)cc1OC
- EC50 [3]: > 150 µM (inactive)
- EC50 [4]: > 38 µM (not active)

Structure (SMILES): C[C@H]([C@@H](N)C(=O)N[C@@H](C(=O)O)[C@@H]1O[C@H](n2ccc(=O)[nH]c2=O)[C@@H](O)[C@H]1O)[C@@H](O)c1ccc(O)cn1
- EC50 [3]: > 150 µM (inactive)
- EC50 [4]: 3.67 µM (active)

Structure (SMILES): Cc1ccc(CN=C(S)Nc2ccc(NS(=O)(=O)c3ccc(C)cc3)cc2)cc1
- EC50 (Streptokinase A): > 150 µM (not active)
- EC50 [1]: 9.78 µM (active)
- EC50 (Streptococcus): 17.6 µM (active)

Structure (SMILES): COc1cc(/C=C/C(=O)OCC(=O)Nc2cc(S(=O)(=O)N3CCCCC3)ccc2C)ccc1O
- IC50 [2]: 68.1 µM (active)

Structure (SMILES): COc1ccc(CN2CCN(CCSc3ccc(C)cc3)CC2)c(OC)c1OC
- AC50 (INS1): > 260 µM (inactive)
- IC50 [2]: 80 µM (active)

Structure (SMILES): COc1ccc(C(=O)Nc2ccccc2C(=O)Nc2ccccc2C(=O)O)cc1
- EC50 [3]: > 160 µM (inactive)
- EC50 [4]: 3.49 µM (active)

Structure (SMILES): CN(C)c1ccc2c3c(ccc(N(C)C)c13)C(=O)OC2
- AC50 [6]: 8.4 µM (active)

Structure (SMILES): O=C(COC(=O)c1ccco1)Nc1cccc(S(=O)(=O)N2CCOCC2)c1
- AC50 (Paired box protein Pax-8): 62.1 µM (active)

Structure (SMILES): CCc1ccc2nc(N3C(=O)C(O)=C(C(=O)c4ccco4)C3c3cccs3)sc2c1 (stereo not drawn)
- EC50 (Streptokinase A): > 150 µM (not active)
- CC50 [7]: > 40 µM (active)
- EC50 [1]: 2.2 µM (active)
- EC50 (Streptococcus): 7.12 µM (active)

Structure (SMILES): CCN(CCNC(=O)C1CC(=O)N(CCc2ccccc2)C1)c1ccccc1 (stereo not drawn)
- AC50 [6]: 0.288 µM (active)

Structure (SMILES): Nc1[nH]c(N=NC(=O)c2ccc(F)cc2)c2ccccc12
- AC50 [6]: 0.24 µM (active)

Structure (SMILES): CC(=O)c1c(C)nc(-c2cccc([N+](=O)[O-])c2)n1O
- EC50 [3]: 69.2 µM (active)
- EC50 [4]: 4.84 µM (active)
